Data: patent US10533034B2, “Human iNKT cell activation using glycolipids” (ACADEMIA SINICA, priority 2014, dated 2020)

How the values were obtained:
[1] = tested on: iNKT TCR of DN3A4-1.2 Vα14+ iNKT hybridoma cells; assay: Binding avidity of mCD1d-loaded glycolipids to Vα14+ iNKT cells (ternary interaction); set-up: species or system mouse
Experimental: (3A) DN3A4-1.2 Vα14+ iNKT hybridoma cells and (3B) 7DW8-5-expanded Vα24^+ iNKT cells were incubated with various concentrations of the indicated dimeric mCD d-glycolipid and hCD1d-glycolipid complexes for 30 min at 4° C., respectively. The level of bound complexes at the indicated concentration was detected by anti-mIgG1 secondary antibody and analyzed by flow cytometry. The relationship between the binding percentage and the concentration of CD1ddi-glycolipids complex was plotted in mice (3A) and humans (3B). KD values in mice (3C) and humans (3D) were calculated from Scatchard transformation of the plot (3A) and 3B), respectively. Assay was performed in duplicates.
Briefly, murine CD1d:Ig dimer (BD Biosciences PharMingen, San Diego, Calif.) was loaded with glycolipids at a molar ratio of 1:10 or vehicle for overnight at 37° C. Murine 1.2 Vα14+ iNKT cells were incubated with various doses of dimer-glycolipid complex in buffer containing azide (0.05%) for 30 min at 4° C. These cells were then stained with anti-mouse IgG1-PE mAb (A85-1) for another 30 min at 4° C., followed by washing, fixation with 4% paraformaldehyde (PFA), and the bound mCD1d dimer complexes were detected by flow cytometry. The binding curve and linear fit of the Scatchard transformation were plotted by Graphpad Prism software.
Next, we measured the ternary interaction between CD1d-glcolipid complex and the iNKT TCR in mice and humans. Different concentrations of mCD1d^di-glycolipid and hCD1d^di-glycolipid complexes were incubated with fixed amounts of DN3A4-1.2 murine iNKT hybridoma cells and human Vα24+/Vβ11^+ iNKT cells, respectively. The level of bound complexes at the indicated concentration was detected by anti-mIgG1 secondary antibody and analyzed by flow cytometry (FIGS. 3A and 3B). The KD of the ternary complex was calculated from the Scatchard transformation of the plots in FIGS. 3A and 3B using GraphPad Prism software. […] This was consistent with the observation that higher percentages of C1-pulsed splenocytes were stained by the mCD1d-7DW8-5 complex (36.2±5.0%) than mCD1d-7DW8-5-Glc complex (17.1±0.8%) (FIG. 11).

B6 wild type mice = assay: Murine serum cytokine/chemokine secretion after i.v. glycolipid, wild type mice; type: in vivo, mouse
Experimental: B6 wild type mice were i.v. injected with 7DW8-5-Glc at 0.1 or 1 μg/mouse. Sera collected at 2 h and 18 h post-injection were analyzed for chemokine secretions such as IP-10 (6A), KC (6B), MCP-1 (6C), and MIP-1α (6D). These chemokines peaked at 2 hr post-injection.
B6 wild type and Jα18 knockout mice were i.v. injected with the indicated glycolipids (1 μg/mouse) or vehicle. Sera collected at 2 h and 18 h post-injection were analyzed for cytokines like IL-2 (7A), IL-6 (7B), GM-CSF (7C) and TNFα (7D) as well as chemokines such as IP-10 (7E), MIG (7F), KC (7G) and MCP-1 (7H). Only MIG peaked at 18 hr post-injection, while the others peaked at 2 hr post-injection.
All the glycolipids were dissolved in 100% DMSO at a concentration of 1-2 mg/ml. For in vivo experiments, all compounds were diluted to 10 μg/ml in saline just before injection of 100 μl diluted glycolipid or 100 μl 1% DMSO into mice. Pathogen-free C57BL/6 female mice aged 6-12 weeks were obtained from the National Laboratory Animal Center (Taipei, Taiwan). Jα18 knockout (KO) B6 mice were the gifts from Dr. Masaru Taniguchi (RIKEN Research Center for Allergy and Immunology, Yokohama, Japan). All the mice were maintained in pathogen free vivarium of Institute of Cellular and Organismic Biology, Academia Sinica (Taipei, Taiwan).
B6 WT or Jα18 KO mice were intravenously injected with vehicle or glycolipids at 0.1 or 1 μg/mouse. Serum was collected at 2 and 18 h after injection for measurement of cytokines/chemokines by Beadlyte® Mouse Cytokine kit (Millipore, N.Y.) and read by a Luminex® 200™ system (Luminex, Austin, Tex.).
Previously, 0.1 μg/mouse of 7DW8-5 was sufficient for immune stimulation,^19 but higher dosage (1 μg/mouse) was required for the glucose analog 7DW8-5-Glc to induce immune responses (FIG. 6). Thus, the biological activities of newly synthesized glycolipids were tested in B6 mice 2 and 18 hr after i.v. injection of glycolipids at 1 μg/mouse. […] As compared to GSLs with αGlc, GSLs with αGal induced higher levels of cytokines and chemokines, including IFN-γ, IL-2, IL-4, IL-6, GM-CSF, TNFα and IP-10.

[2] = tested on: B6 Jα18 KO mice splenocytes; assay: FACS analyses of Jα18 KO mouse immune cells after glycolipid stimulation; type: in vivo; conditions: 1 μg/mouse i.v.; 3 days
Experimental: B6 Jα18 KO mice treated with the indicated glycolipid (1 μg/mouse) or vehicle (% DMSO in PBS) were sacrificed at 72 hr post-injection and their splenocytes were subjected to FACS analysis. (9A) The total splenocytes, (9B) total CD11Chi cells, (9C) CD11Chi/CD80+ cells, (9D) CD11Chi/CD86+ cells, (9E) CD4^+ T cells and (9F) CD8^+ T cells (student t test: *, p<0.05, as compared to D).
B6 WT or Jα18 KO mice treated with specific glycolipid (1 μg/mouse) or vehicle (1% DMSO in PBS) were sacrificed at 72 hr post-injection and their spleens were harvested. After pressing spleens through 70 um strainer and lysis of erythrocytes, the nucleated cells were resuspended in PBS buffer containing azide (0.05%) and stained with antibodies recognizing the indicated cell surface antigens for 30 min at 4° C. After washing, the splenocytes were subjected to FACS analysis. The antibodies against CD3, CD4, CD8α, CD11c, CD80, and CD86 were obtained from BD Bioscience-Pharmingen.
Unexpectedly, we also observed that 7DW8-5-Glc induced chemokines in Jα18 KO mice (FIG. 7).

Structure (SMILES)	staining of murine iNKT cells with CD1d-glycolipid dimer [1]	induction of serum cytokines/chemokines (B6 wild type mice; 1 μg/mouse i.v., 2 and 18 hr)	levels of KC, MCP-1, IP-10 and MIG chemokines induced (B6 wild type mice; 1 μg/mouse i.v., 2 and 18 hr)	levels of Th1 and Th2 cytokines induced (B6 wild type mice; 1 μg/mouse i.v., 2 and 18 hr)	dosage required to induce immune responses (B6 wild type mice; i.v., sera 2 h and 18 h)	expansion/activation of CD11chi monocyte-derived DCs in Jα18 KO mice [2]	total splenocytes, CD4+ T and CD8+ T cells in Jα18 KO mice [2]	fold stronger interaction with iNKT TCR than mCD1d-7DW8-5-Glc complex ([1]; mCD1d complex)
CCCCCCCCCCCCCC[C@@H](O)[C@@H](O)[C@H](CO[C@H]1O[C@H](CO)[C@@H](O)[C@H](O)[C@@H]1O)NC(=O)CCCCCCCCCCc1ccc(F)cc1 [Compound 7DW8-5-Man]	lack of staining	failed to induce any cytokines/chemokines						
CC[C@@H](O)[C@@H](O)[C@H](CO[C@H]1OC(CO)[C@@H](O)C(O)C1O)NC(=O)Cc1ccc(F)cc1 (stereo partly drawn) [Compound 7DW8-5-Glc]			relatively high levels	very low levels	1 μg/mouse	significantly expanded and activated	No significant differences	
CCCCCCCCCCCCCC[C@@H](O)[C@@H](O)[C@H](CO[C@H]1O[C@H](CO)[C@H](O)[C@H](O)[C@H]1O)NC(=O)CCCCCCCCCCc1ccc(F)cc1 [Compound 7DW8-5, reference compound]							No significant differences	~10 fold
